Values joined by “and” are separate entries in the source; they are usually repeats but may differ in a detail not shown here. Equal values may be shown once.
Assays:
[1] = Pharmacokinetics assay in rats after intragastrical administration; format: in vivo, Sprague-Dawley (SD) rats; details: both sexes, Sprague-Dawley, rat, plasma, po, SD rats, intragastric, 2 mg/kg; for Vd/F: read-out: Apparent Distribution Volume Vz/F; for AUC: read-out: Area Under Curve AUC; for CL/F: read-out: Clearance CLz/F; for half-life: read-out: Half-Life T½ (converted); for MRT: read-out: Mean Residence Time MRT; for Cmax: read-out: Plasma Concentration Cmax
Text: Test Example 3. Pharmacokinetics Assay of the Compounds of the Present Invention
Rats were used as test animals. […] The pharmacokinetic behavior of the compounds of the present invention was studied and evaluated in rats.
56 healthy adult Sprague-Dawley (SD) rats, half male and half female, were purchased from SINO-BRITSH SIPPR/BK LAB. ANIMAL LTD., CO, with License No.: SCXK (Shanghai) 2008-0016.
2.3 Preparation of the Test Compounds
A certain amount of the test compound was weighed, and added with 5% by volume of DMSO, 5% by volume of Tween 80 and 90% normal saline to prepare a 0.2 mg/mL colorless, clear and transparent solution.
After an overnight fast, SD rats were intragastrically administered at a dose of 2.0 mg/kg and an administration volume of 10.0 mL/kg.
Blood (0.2 mL) was taken from the orbital sinus before administration and at 0.5, 1.0, 2.0, 4.0, 6.0, 8.0, 11.0 and 24.0 hours after administration. The samples were stored in heparin anticoagulation tubes, and centrifuged for 10 minutes at 3500 rpm at 4° C. to separate the blood plasma. The plasma samples were stored at −20° C. The rats were fed 2 hours after administration.
(§1) The content of the test compound in the plasma of rats after intragastric administration of different concentrations of the drug was determined: 25 μL of rat plasma at each time after administration was taken and added with 30 μL (100 ng/mL) of the internal standard solution of camptothecin and 200 μL of acetonitrile, shaken vertically for 5 minutes, and centrifuged for 10 minutes (4000 rpm). 3.0 μL of the supernatant was taken from the plasma samples for LC/MS/MS analysis.
4. Results of Pharmacokinetic Parameters
Pharmacokinetic parameters of the compounds of the present invention in rats are shown below.

[2] = Determination of APTT value in cynomolgus monkeys; format: in vivo; details: cynomolgus monkey, individual animals; for APTT (sec) 1 hour / APTT (sec) 2 hours / APTT (sec) 4 hours / APTT (sec) 8 hours / APTT (sec) 12 hours: 15.0 mg/kg intragastric; for APTT (sec) 1 hour: 1 hour after administration; for APTT (sec) 2 hours: 2 hours after administration; for APTT (sec) 4 hours: 4 hours after administration; for APTT (sec) 8 hours: 8 hours after administration; for APTT (sec) 12 hours: 12 hours after administration; for APTT (sec) Before Administration: baseline before 15.0 mg/kg intragastric dose
Method: (§2) Test Example 4: Determination of APTT Value and Pharmacokinetic Assay in Cynomolgus Monkey
(§3) Six male cynomolgus monkeys (101, 102, 103, 201, 202 and 203) were purchased from Guangxi Xiongsen Primate Experimental Animal Breeding Development Co., Ltd.
(§4) Compounds of Example 5 and Example 108.
(§5) 4. Preparation of the Test Compounds
(§6) A certain amount of the test compound was weighed, and added with 2% by volume of DMSO, 78% by volume of PEG400 and 20% CMC-Na (0.5%) to prepare a 3.0 mg/mL colorless, clear and transparent solution.
(§7) After an overnight fast, cynomolgus monkeys were intragastrically administered at a dose of 15.0 mg/kg and an administration volume of 5.0 mL/kg.
6. Test Protocol for Determination of APTT Value in Cynomolgus Monkeys
6.1 Experimental Materials
Reagents: APTT reagent (Activated partial thromboplastin time assay kit, SIEMENS, Art. No. B4218-1), PEG-400 and CMC-Na;
Instrument: Coagulation instrument (SYSMEX, CA-500).
6.2 Collection and Processing of APTT Plasma Sample
Blood was taken before administration and at 1 hour, 2 hours, 4 hours, 8 hours and 12 hours after administration. About 1.8 mL of blood was taken through femoral vein puncture in each animal for each time. Anticoagulated sodium citrate was added. After the blood sample was collected, it was placed in a pre-labeled centrifuge tube, and the plasma was separated by centrifugation (centrifugation conditions: 3500 rpm, 10 minutes, 2-8° C.). The plasma was stored in a −80° C. refrigerator for APTT assay.
6.3 APTT Assay Results in Cynomolgus Monkeys

[3] = tested on: human blood; assay: In vitro anticoagulant effect on human blood (APTT, CT2); details: Table 2; concentration corresponding to 2 times the APTT of the blank control, human plasma
Procedure, shortened: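 Citrated human plasma (3.8% sodium citrate, 1:9) spiked with compound serially diluted in 100% DMSO (0.3–3000 μM dilution series; DMSO blank) and APTT measured on a coagulation analyser. CT2 is the compound concentration doubling blank APTT, from curve fitting.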

[4] = Pharmacokinetics assay in cynomolgus monkeys; format: in vivo; details: male, cynomolgus monkey, plasma, po, intragastric, 15 mg/kg; for Vd/F: read-out: Apparent Distribution Volume Vz/F; for AUC: read-out: Area Under Curve AUC; for CL/F: read-out: Clearance CLz/F; for half-life: read-out: Half-Life T½ (converted); for MRT: read-out: Mean Residence Time MRT; for Cmax: read-out: Plasma Concentration Cmax
Text: as §2
Cynomolgus monkeys were used as test animals. […] The pharmacokinetic behavior of the compounds of the present invention was studied and evaluated in the cynomolgus monkeys.
as §3, §4, §5, §6, §7
7. Test Protocol of Pharmacokinetics Assay in Cynomolgus Monkeys
1.0 mL of blood was taken from the forelimb vein before administration and at 0.25, 0.5, 1, 2, 4, 6, 8, 12 and 24 hours after administration. The samples were stored in heparin anticoagulation tubes, and centrifuged for 10 minutes at 3500 rpm to separate the blood plasma. The plasma samples were stored at −80° C. The […] were fed 2 hours after administration.
as §1, with “of cynomolgus monkeys” for “of rats”, “of cynomolgus monkey” for “of rat”, “and 225” for “and 200”, “rpm). 1.0” for “rpm). 3.0”
7.2. Results of Pharmacokinetic Parameters in Cynomolgus Monkeys
Pharmacokinetic parameters of the compounds of the present invention in cynomolgus monkeys are shown below.

Structure (SMILES)	Vd/F [1] [L/kg]	AUC [1] [ng·h/mL]	CL/F [1] [mL/min/kg]	half-life [1] [h]	MRT [1] [h]	Cmax [1] [ng/mL]	APTT (sec) 1 hour [2]	APTT (sec) 2 hours [2]	APTT (sec) 4 hours [2]	APTT (sec) 8 hours [2]	APTT (sec) 12 hours [2]	APTT (sec) Before Administration [2]	CT2, concentration doubling APTT [3] [µM]	Vd/F [4] [L/kg]	AUC [4] [ng·h/mL]	CL/F [4] [mL/min/kg]	half-life [4] [h]	MRT [4] [h]	Cmax [4] [ng/mL]
COc1cn([C@@H](Cc2ccccc2)C(=O)Nc2ccc(C(=O)O)cc2)c(=O)cc1-c1cc(Cl)ccc1C(C)=O [Example 5, (S)-4-(2-(4-(2-acetyl-5-chlorophenyl)-5-methoxy-2-oxopyridin-1(2H)-yl)-3-phenylpropanamido)benzoic acid]	4.98 ± 0.291	518 ± 63	65.1 ± 8.1	0.89 ± 0.08	6.64 ± 1.77	244 ± 77	36.8 s and 25.9 s	33.3 s and 31.4 s and 27.2 s	28.3 s and 26.1 s and 22.2 s	27.3 s and 32.5 s and 24.8 s	28.6 s and 23.8 s and 23.9 s	17.2 s and 17.3 s and 19.1 s	2.0	30.4 ± 12.6	4950 ± 2880	62 ± 32	5.86 ± 1.1	9.63 ± 0.78	688 ± 560
CCC(=O)c1ccc(Cl)cc1-c1cc(=O)n([C@@H](CCOC(C)(C)C)C(=O)Nc2ccc(C(=O)O)cc2)cc1OC [Example 108, (S)-4-(4-(tert-butoxy)-2-(4-(5-chloro-2-propionylphenyl)-5-methoxy-2-oxopyridin-1(2H)-yl)butanamido)benzoic acid]	44.4 ± 3.45	452 ± 44	74.3 ± 6.9	6.98 ± 1.22	7.33 ± 0.48	105 ± 23	26.3 s and 31.2 s and 31.9 s	27.5 s and 27.1 s and 28.5 s	28.7 s and 24.1 s and 28.6 s	26.9 s and 20.3 s and 26.3 s	27.3 s and 19 s and 21.5 s	17.5 s and 18.5 s and 17.6 s	1.4	59.1 ± 26.2	2700 ± 1340	120 ± 83	6.32 ± 1.47	8.81 ± 3.65	295 ± 102
